Data published in patent publication US6846931B2, “Organic acid salt of amlodipine” (CJ Corp, priority 2002, dated 2005).

How the values were obtained:
[1] = Test for light stability, aqueous solution exposed to daylight (HPLC content); type: physicochemical; settings: for content (HPLC): stored for 4 weeks at 25° C. daylight; for color change: 4 weeks at 25° C., daylight
Experimental: The resulting aqueous solutions were stored at 25° C. for 4 weeks while being exposed to daylight. A measurement was made of the contents of the salts with resort to HPLC under the same conditions as in the chemical stability test.

[2] = Chemical stability in solid state, accelerated test at 60° C. (HPLC content); type: physicochemical; settings: for changes in the content: accelerated test at 60° C.; for content (HPLC): solid state, 60° C.
Source text: 1. HPLC Analysis Conditions:
Detector: UV Absorbance (at 237 nm)
Column: Octadesyl silica gel C18 (4.6 mm×150mm, 5 μm)
Mobile Phase: Potassium dihydrogenphosphate monobasic (0.03M): methanol=4:6 (v/v)

[3] = Test for hygroscopicity (water content at different humidity levels); type: physicochemical; settings: for water content: 25° C.; for change of water content: one week under various humidity conditions
[4] = physchem; settings: 37 °C, pH 5, aqueous buffer
[5] = Chemical stability in aqueous state, 25° C., 4 weeks, complete darkness (HPLC); type: physicochemical; settings: distilled water
Experimental: The resulting aqueous solutions were stored at 25° C. for 4 weeks in complete darkness, after which a measurement was made of the contents of the salts with resort to HPLC under the same conditions as in the solid state.

SMILES	content (HPLC) [1]	changes in the content [2]	content (HPLC) ([2]; 1 week)	content (HPLC) ([2]; 2 weeks)	content (HPLC) ([2]; initial)	water content ([3]; 25% RH, 1 week)	water content ([3]; 60% RH, 1 week)	water content ([3]; 75% RH, 1 week)	water content ([3]; 90% RH, 1 week)	water content ([3]; Initial)	change of water content [3]	color change [1]	solubility [4]	decomposition products and content change [5]
CCOC(=O)C1=C(COCCN)NC(C)=C(C(=O)OC)C1c1ccccc1Cl.Cc1ccc(S(=O)(=O)O)cc1 (stereo not drawn) [Tosylate, Amlodipine para-Toluenesulfonate]	72.0%	–	–	–	–	–	–	–	–	–	–	–	–	–
CCOC(=O)C1=C(COCCN)NC(C)=C(C(=O)OC)C1c1ccccc1Cl (stereo not drawn) [Besylate, Amlodipine Besylate]	82.5%	virtually no changes in the content	99.6%	99.4%	99.6%	0.10%	0.09%	0.15%	0.17%	0.14%	kept its initial water content without great fluctuation	turned yellow from white	3150 µg/mL	neither decomposition products nor content change is found
CCOC(=O)C1=C(COCCN)NC(C)=C(C(=O)OC)[C@@H]1c1ccccc1Cl [(S)-(−)-PyroGlu, Amlodipine (S)-(−)-Pyroglutamate]	98.5%	virtually no changes in the content	99.6%	–	99.6%	0.26%	0.3%	0.31%	0.32%	0.3%	kept its initial water content without great fluctuation	no color change	–	neither decomposition products nor content change is found
